Data from patent US8071575B2, “Methods and compounds for the targeted delivery of agents to bone for interaction therewith” (priority 2007, dated 2011).

What was measured:
OVX rats [1] = assay: RatLaps ELISA for C-telopeptide fragments of collagen type I (CTX-I) in serum; format: in vivo, Sprague-Dawley female rats; conditions: Formula 125 at 1000 μg/kg, 17-ethinyl estradiol equimolar, alendronate 1.6 mg/kg
Source text: RatLaps™ ELISA for C-Telopeptide Fragments of Collagen Type I (CTX-I). […] Bone resorption (CTX-I) was quantitatively assessed in rat serum using the commercially available RatLaps™ ELISA KIT from Nordic Bioscience Diagnostics A/S (Herlev, Denmark) as recommended by the manufacturer.

OVX rats [2] = assay: Quantitative determination of lipid metabolism (total cholesterol, HDL, LDL) in rat serum; format: in vivo, Sprague-Dawley female rats
Method: (§1) Animals. Six month old, bilaterally ovariectomized (OVX) or sham operated Sprague-Dawley female rats (Harlan Laboratories, Indianapolis, Ind.) were maintained at the University of Louisville Research Resources Center at 22° C. with a 12-h light/dark cycle and ad libitum access to tap water and rodent chow (Purina Laboratory Rodent Diet 5001). All animal procedures were approved by the Institutional Animal Care and Use Committee, which is certified by the American Association for Accreditation of Laboratory Animal Care.
(§2) In vivo experiments were conducted in order to investigate the efficacy of compounds of the presently-disclosed subject matter. In all of the experiments, OVX and sham operated rats were randomly divided into groups of 5-7 animals. In all of the studies experimental groups included: i) Sham-operated control (euthanized six weeks post surgery as a pretreatment control), ii) OVX control (euthanized six weeks post surgery as a pretreatment control), iii) Sham control receiving vehicle, iv) OVX control receiving vehicle, v) OVX receiving 17-ethinyl estradiol (equimolar concentration with a selected test compound), vi) OVX receiving alendronate (1.6 mg/kg), and vii) OVX receiving parathyroid hormone 1-34 (PTH) ([…]). 17-ethinyl estradiol (17 EE) is a free estrogenic agent known to be orally active, and can serve as an example of an anti-catabolic agent. Alendronate (Alen) is a bisphosphonate that is currently used to treat osteoporosis (e.g., Fosamax®, Merck & Co., Inc,), and can serve as an example of an anti-catabolic agent. Parathyroid hormone 1-34 (PTH) is an agent that can serve as an example of an anabolic agent. All compounds and vehicle (1% DMSO in corn oil) were administered three times per week orally by gavage except for PTH which was administered via a subcutaneous injection in a volume of 0.5 ml/kg body mass thrice per week. Compound administration was initiated 6 weeks following surgery and lasted for 6 weeks (18 doses total).
(§3) Following 6 weeks of treatment, blood was obtained from each animal via cardiac puncture following an overnight fast and animals were subsequently euthanized via carbon dioxide asphyxiation. Blood was centrifuged immediately and the obtained serum samples were aliquoted and stored at −70° C. prior to analysis. Uteri were removed and fresh weights were obtained. Uterine masses were normalized to body mass at the end of the experiment. The left and right femora and left and right tibiae were subsequently collected from each animal, cleaned of soft tissue, and stored in saline at 4° C. prior to analysis.
Quantitative Determination of Lipid Metabolism (Total Cholesterol HDL, and LDL) in Rat Serum. Total cholesterol, high-density lipoprotein (HDL), and low-density lipoprotein (LDL) were quantitatively determined in the serum of rats in order to evaluate the extraosseous effects of estrogen treatment on lipid metabolism. Commercially available kits from Wako Diagnostics (Richmond, Va.) were used for the evaluations as recommended by the manufacturer.

OVX rats [3] = assay: Bone mechanical competence indentation test; format: in vivo, Sprague-Dawley female rats; conditions: for bone strength (indentation test): present-tense example, no data or figure
Method: as §1, §2
(§4) Compounds of the presently-disclosed subject matter were orally administered to OVX rats at various doses. As indicated above all BTE's were administered three times per week for 6 weeks.
as §3
Bone Mechanical Competence Indentation Test. After sacrifice, the left tibiae were trimmed to expose the cancellous bone of the proximal tibial metaphysis and an indentation test was performed by advancing a flat-tipped cylindrical post (1.5 mm diameter) axially into the cut surface to measure the compressive strength of the cancellous bone structure.

ICR Swiss mice = assay: Stimulation of periosteal bone formation in a mouse calvarial injection model; format: in vivo; conditions: present-tense example, no data or figure
Method: Stimulation of Periosteal Bone Formation in a Mouse Calvarial Injection Model. The anabolic (bone formation) of compounds of the presently-disclosed subject matter are evaluated in the mouse calvarial injection model. Briefly, 4-week-old ICR Swiss mice are injected subcutaneously over the surface of the calvariae with compounds of the presently-disclosed subject matter at concentrations of 0, 1, 3, and 10 mg/kg/day for 5 days (twice a day). Microtubule inhibitor TN-16 (5 mg/kg/day for 2 days, twice a day) are used as a positive control. Mice are sacrificed two weeks after the injections are completed. Dissected calvarial samples are fixed in 10% phosphate-buffered formalin for 2 days, decalcified in 10% EDTA for 2 weeks and then embedded in paraffin. Histological sections are cut and stained with H&E and orange G. New woven bone formation (new bone area) is quantified by histomorphometry using the OsteoMeasure system (OsteoMetrics Inc., Atlanta, Ga.).

[4] = Hydroxyapatite (HA) Binding Assay; conditions: 10^−5 M analyte, 50 mM Tris-HCl pH 7.4, 1% DMSO; adjusted such that tetracycline = 100
Method: A Hydroxyapatite (HA) Binding Assay is used to determine whether compounds have an affinity for bone. Compounds of the presently-disclosed subject matter having a Bone Targeting Portion (RT) are studied using the HA Binding Assay. A 10^−3 M solution of each analyte was made in 100% dimethylsulfoxide (DMSO). A 100 fold dilution was then made to form a 10^−5 M solution in 50 mM Tris-HCl buffer, pH 7.4, 1% DMSO. Tetracycline was used as a reference analyte and approximately 50% was adsorbed to HA at the concentration of 10^−5 M. The HA slurry was 0.5 g/100 mL 50 mM Tris-HCl buffer, 1% DMSO.
For each analyte, two samples were prepared. For one sample, 1 mL of 10^−5 M analyte and 100 μL 50 mM Tris-HCl buffer, 1% DMSO was pipetted into a microcentrifuge tube. For the second sample, 1 mL of 10^−5 M analyte and 100 μL of the HA slurry was pipetted into a microcentrifuge tube. The samples were mixed gently by inversion for 4 minutes and then centrifuged at 12,000 g for 3 minutes to sediment the HA contained in those samples. The supernatant was transferred to another microcentrifuge tube.
An electronic spectral scan (ultraviolet-visible) from 220-520 nm was obtained for each analyte using a Varian Cary 300 Bio Scan. The blank was 50 mM Tris-HCl buffer, 1% DMSO. The wavelength of maximum absorbance (λmax) was determined, and the extinction coefficient (ε) was calculated using the Beer-Lambert Law.
The absorbance of the samples incubated with HA was measured at λmax, and the molar concentration of the analyte was then determined using the Beer-Lambert Law and the previously calculated extinction coefficient. The fraction adsorbed to HA for each sample was subsequently calculated.

OVX rats [5] = assay: Femoral density via Archimedes' Principle (whole bone); format: in vivo, Sprague-Dawley female rats; conditions: for whole bone density and regional bone density: present-tense example, no data or figure
Method: as §1, §2, §4, §3
Femoral Density via Archimedes' Principle. Right femora were submerged in distilled water and fully hydrated under a vacuum for 1 hr. Subsequently, the mass of each hydrated femur was obtained in air and when submerged in water. Densities were determined using Archimedes' Principle according to the following formula: density=[mass of hydrated femur/(mass of hydrated femur−mass of hydrated femur submerged in water)]×density of distilled water at a given temperature (See Keenan, et al. Comparison of bone density measurement techniques: DXA and Archimedes' principle. J Bone Miner Res 1997; 12:1903-7.). The obtained density measurements were associated with whole bone.

OVX rats [6] = assay: Uterine mass and uterine mass to body weight ratio in OVX rats; format: in vivo, Sprague-Dawley female rats; conditions: present-tense example, no data or figure
Method: as §1, §2, §4, §3
Uterine Mass and Body Weight. […] Uterine mass can be used to as a measure of estrogenic effect occurring in a tissue outside the bone in response to treatment with a test compound or composition. Generally, a lower uterine mass can be associated with a decreased risk of adverse side effects associated with the test compound or composition. A ratio of uterine mass to body weight can be used to correct for any increase in uterine size attributable to the relative size of the individual animal. Body weight and/or uterine mass also serve as an indirect measures of toxicity of a test compound.

OVX rats [7] = assay: Volume fraction, ex vivo micro-computed tomography of tibia; format: in vivo, Sprague-Dawley female rats; conditions: for volume fraction (BV/TV) of trabecular, cortical and whole bone tissue: present-tense example, no data or figure
Method: as §1, §2, §4, §3
Volume Fraction—Ex vivo micro-computed tomography (μCT). Volume fraction is a representative value for the amount of bone that occupies a given volume or space. High resolution image data were collected using a customized micro-CT system (ACTIS 150/225 system, BIR Inc., Lincolnshire, Ill.). The metaphysis of each right tibia was scanned over a three millimeter range and three-dimensional images were reconstructed. Data were subsequently processed to reveal the volume fraction (BV/TV) occupied by trabecular (cancellous) bone tissue, cortical bone tissue, and whole bone tissue. The resulting data provides information regarding the density of whole bone, cortical bone, and trabecular bone.

OVX rats [8] = assay: Regional femoral density via Archimedes' Principle; format: in vivo, Sprague-Dawley female rats; conditions: oral 10, 100, or 1000 μg/kg, three times per week for 6 weeks
Method: as §1, §2, §4
Following 6 weeks of treatment, blood was obtained from each animal via cardiac puncture following an overnight fast and animals were subsequently euthanized via carbon dioxide asphyxiation. […]
Regional Femoral Density via Archimedes' Principle. […] Briefly, each femur was measured with a Cen-Tech Digital Caliper and a cut was made from each end at 20% of the length of the femur plus half the width of the blade. Subsequently, the bone marrow was washed out of the femoral diaphysis and the Archimedes density for each of the three femoral regions was determined as described above.

[9] = present-tense example, no data or figure
[10] = OVX rats, oral 10, 100, or 1000 μg/kg

| SMILES | production of CTX-I (bone resorption marker) in serum (OVX rats [1]) | lipid metabolism (total cholesterol, HDL, LDL in serum) (OVX rats [2]; [9]) | bone strength (indentation test) (OVX rats [3]) | new bone area (calvarial injection model) (ICR Swiss mice) | Binding Index (binding to hydroxyapatite) [4] | whole bone density and regional bone density (OVX rats [5]) | uterine mass (OVX rats [6]) | volume fraction (BV/TV) of trabecular, cortical and whole bone tissue (OVX rats [7]) | regional bone density (left femur) (OVX rats [8]) | lipid metabolism (total cholesterol, HDL, LDL in serum) (OVX rats [2]; rat, in vivo) | bone strength (tibial indentation test) (OVX rats [3]; [10]) | whole bone density (right femora) (OVX rats [5]; OVX rats, oral 10, 100, or 1000 μg/kg, three times per week for 6 weeks) | bone density from three-dimensional micro-CT images (OVX rats [7]; [10]) | trabecular volume fraction (OVX rats [7]; OVX rats, oral 10, 100, or 1000 μg/kg, ex vivo micro-CT) |
| --- | --- | --- | --- | --- | --- | --- | --- | --- | --- | --- | --- | --- | --- | --- |
| C#C[C@]1(O)CC[C@H]2[C@@H]3CCc4cc(O)ccc4[C@H]3CC[C@@]21C [17-ethinyl estradiol] | descrease the production of CTX-1 to sham levels | – | – | – | – | – | – | – | – | – | – | – | – | – |
| COc1ccc(NC(=O)CCC(=O)Nc2nnc(S(N)(=O)=O)s2)c(O)c1C(N)=O [Formula 35] | – | limited or no effect | increase bone strength | increase new bone area | 20 | increase bone density | limited or no effect | increase bone density | – | – | – | – | – | – |
| COc1ccc(NC(=O)COCCOCCOCCNC(=O)CCO[C@@H]2CCC3C4CCc5cc(O)ccc5C4CCC32C)c(O)c1C(N)=O (stereo partly drawn) [Formula 124] | – | – | – | increase new bone area | 100 | – | – | – | in the same ranges as those animals receiving 17-ethinyl estradiol (17 EE), Alendronate (Alen), or Parathyroid hormone 1-34 (PTH) | limited or no effect | dose-responsive increase in bone strength, relative to the OVX animals | in the same ranges as those animals receiving 17-ethinyl estradiol (17 EE), Alendronate (Alen), or Parathyroid hormone 1-34 (PTH) | increase in bone density | in the same ranges as those animals receiving 17-ethinyl estradiol (17 EE), Alendronate (Alen), or Parathyroid hormone 1-34 (PTH) |
| COc1ccc(NC(=O)COCCOCCNC(=O)COc2ccc(-c3coc4cc(O)cc(O)c4c3=O)cc2)c(O)c1C(N)=O [Formula 128] | – | limited or no effect | increase bone strength | increase new bone area | – | increase bone density | limited or no effect | increase bone density | – | – | – | – | – | – |
| COc1ccc(NC(=O)COCCOCCNC(=O)CCCC(CO[N+](=O)[O-])O[N+](=O)[O-])c(O)c1C(N)=O (stereo not drawn) [Formula 130] | – | limited or no effect | increase bone strength | increase new bone area | 130 | increase bone density | limited or no effect | increase bone density | – | – | – | – | – | – |
| NCCCC(O)(P(=O)(O)O)P(=O)(O)O [alendronate] | descrease the production of CTX-1 to sham levels | – | – | – | – | – | – | – | – | – | – | – | – | – |
